From patent US20230066946A1, “1,5-DIPHENYLPYRAZOLYL-3-OXYALKYL ACIDS AND 1-PHENYL-5-THIENYLPYRAZOLYL-3-OXYALKYL ACIDS AND THE USE THEREOF FOR CONTROL OF UNWANTED PLANT GROWTH” (Bayer Aktiengesellschaft, priority 2019, published 2023)

Columns and labels:
STEME [1] = experiment: Pre-emergence herbicidal action against STEME; format: in vivo, Stellaria media; details: 1280 g/ha, scored visually after about 3 weeks vs untreated controls
Source text: (§1) Seeds of mono- and dicotyledonous weed plants are placed in plastic pots in sandy loam soil (doubly sown with one species each of mono- or dicotyledonous weed plants per pot) and covered with soil. The compounds of the invention, formulated in the form of wettable powders (WP) or as emulsion concentrates (EC), are then applied onto the surface of the covering soil as aqueous suspension or emulsion with addition of 0.5% additive at a water application rate equivalent to 600 litres per hectare. After the treatment, the pots are placed in a greenhouse and kept under good growth conditions for the trial plants. After about 3 weeks, the effect of the preparations is scored visually in comparison with untreated controls as percentages. For example, 100% activity=the plants have died, 0% activity=like control plants. [table] Tables 4.1-4.15 below show the effects of selected compounds of the general formula (I) according to Tables 1 to 3 on various harmful plants at an application rate corresponding to 1280 or 320 g/ha, which have been obtained by the aforementioned experimental method.

STEME [2] = experiment: Post-emergence herbicidal action against STEME; format: in vivo, Stellaria media; details: 1280 g/ha, visual rating about 3 weeks after treatment
Procedure: (§2) [table] Seeds of mono- and dicotyledonous weed plants are placed in plastic pots in sandy loam soil (twin sowing with one species each of mono- or dicotyledonous weed plants per pot), covered with soil and cultivated in a greenhouse under controlled growth conditions. 2 to 3 weeks after sowing, the test plants are treated at the one-leaf stage. The compounds of the invention, formulated in the form of wettable powders (WP) or as emulsion concentrates (EC), are applied to the green parts of the plants as aqueous suspension or emulsion with addition of 0.5% additive at a water application rate equivalent to 600 litres per hectare. After the test plants have been kept in the greenhouse under optimum growth conditions for about 3 weeks, the activity of the preparations is rated visually in comparison to untreated controls. For example, 100% activity=the plants have died, 0% activity=like control plants. Tables 5.1-5.16 below show the effects of selected compounds of the general formula (I) according to Tables 1 to 3 on various harmful plants at an application rate corresponding to 1280 or 320 g/ha, which have been obtained by the aforementioned experimental method.

SETVI = experiment: Pre-emergence herbicidal action against SETVI; format: in vivo, Setaria viridis; details: 1280 g/ha, scored visually after about 3 weeks vs untreated controls
Source text: as §1

AMARE [3] = experiment: Post-emergence herbicidal action against AMARE; format: in vivo, Amaranthus retroflexus; details: 1280 g/ha, visual rating about 3 weeks after treatment
Procedure: as §2

MATIN = experiment: Post-emergence herbicidal action against MATIN; format: in vivo, Matricaria inodora; details: 1280 g/ha, visual rating about 3 weeks after treatment
Procedure: as §2

AMARE [4] = experiment: Pre-emergence herbicidal action against AMARE; format: in vivo, Amaranthus retroflexus; details: 1280 g/ha, scored visually after about 3 weeks vs untreated controls
Source text: as §1

Row | Structure (SMILES) | Pre-emergence action against STEME in % (STEME [1]) | Post-emergence action against STEME in % (STEME [2]) | Pre-emergence action against SETVI in % (SETVI) | Post-emergence action against AMARE in % (AMARE [3]) | Post-emergence action against MATIN in % (MATIN) | Pre-emergence action against AMARE in % (AMARE [4])
1 | COC(=O)COc1nn(-c2ccc(C)cc2)c(-c2cccc(F)c2)c1C#N [I-020] | 80% | – | – | – | – | –
2 | C=CCNC(=O)COc1nn(-c2ccc(F)cc2)c(-c2cccc(F)c2)c1I [III-008] | 100% | 100% | – | – | – | –
3 | CCNC.O=C(O)COc1nn(-c2cccc(F)c2)c(-c2ccccc2)c1I [II-08] | – | 90% | – | – | – | –
4 | O=C(O)COc1nn(-c2cccc(F)c2)c(-c2ccccc2)c1[N+](=O)[O-] [I-129] | 100% | – | 100% | 100% | 100% | 100%
5 | COC(=O)COc1nn(-c2ccc(Cl)c(Cl)c2)c(-c2ccc(F)c(F)c2)c1Cl [I-027] | – | – | – | 80% | – | –
6 | COC(=O)CNC(=O)C(C)Oc1nn(-c2ccccc2)c(-c2ccc(F)cc2)c1Br (centres unmarked) [III-056, Methyl N-(2-{[4-bromo-5-(4-fluorophenyl)-1-phenyl-1H-pyrazol-3-yl]oxy}propanoyl)glycinate] | 100% | – | 90% | – | 90% | 100%
7 | CCOC(=O)COc1nn(-c2ccc(F)cc2)c(-c2ccc(F)cc2F)c1Br [I-086] | 90% | – | 90% | 100% | – | 100%
8 | CCCN.O=C(O)COc1nn(-c2cccc(F)c2)c(-c2ccccc2)c1I [II-06] | 90% | 100% | – | – | – | 90%
9 | COC(=O)C(C)Oc1nn(-c2ccccc2)c(-c2ccccc2F)c1Cl (centres unmarked) [I-166] | 90% | – | 90% | 100% | 100% | 90%
10 | COC(=O)COc1nn(-c2ccccc2F)c(-c2ccc([N+](=O)[O-])cc2)c1[N+](=O)[O-] [I-099] | – | – | – | 90% | – | 90%
11 | O=C(COc1nn(-c2ccccc2)c(-c2ccc(F)cc2)c1Br)OCc1ccccc1 [I-112] | 100% | – | – | – | – | 100%
12 | O=C(COc1nn(-c2ccc(F)cc2)c(-c2cccc(F)c2)c1I)OCc1ccccc1 [I-124] | 100% | – | 100% | – | 90% | –
13 | CC(C)(C)N.O=C(O)COc1nn(-c2cccc(F)c2)c(-c2ccccc2)c1I [II-09] | 100% | 100% | – | – | – | 90%
14 | CCOC(=O)COc1nn(-c2ccc(Cl)cc2F)c(-c2ccc(F)cc2)c1Br [I-156] | 100% | – | 90% | 100% | 90% | 100%
15 | COC(=O)C(C)(C)Oc1nn(-c2ccccc2)c(-c2ccc(F)cc2)c1Br [I-135] | 100% | – | – | – | – | –
16 | COC(=O)COc1nn(-c2ccc(F)cc2)c(-c2cccc(F)c2)c1I [I-109] | 100% | 90% | – | 100% | – | –
17 | O=C(O)COc1nn(-c2ccc(F)cc2)c(-c2cccc(F)c2)c1I [I-118] | – | – | 90% | – | – | 100%

Row | Structure (SMILES) | Pre-emergence action against STEME in % (STEME [1]) | Post-emergence action against STEME in % (STEME [2]) | Pre-emergence action against SETVI in % (SETVI) | Post-emergence action against AMARE in % (AMARE [3]) | Post-emergence action against MATIN in % (MATIN) | Pre-emergence action against AMARE in % (AMARE [4])
18 | CCOC(=O)COc1nn(-c2ccccc2OC)c(-c2ccc(F)cc2F)c1Br [I-091] | – | – | 90% | 100% | – | 100%
19 | O=C(O)COc1nn(-c2cccc(F)c2)c(-c2ccccc2)c1I [I-128] | 90% | – | – | 90% | – | 100%
20 | CCOC(=O)COc1nn(-c2ccc(Cl)cc2)c(-c2ccc(F)cc2)c1Br [I-078] | – | – | 100% | 100% | – | 90%
21 | COC(=O)CNC(=O)COc1nn(-c2cccc(F)c2)c(-c2ccccc2)c1[N+](=O)[O-] [III-029] | – | – | – | – | – | 90%
22 | O=C(COc1nn(-c2ccc(F)cc2)c(-c2cccc(F)c2)c1Br)NC1CC1 [III-018] | 100% | – | 90% | 100% | – | 90%
23 | CC#CCNC(=O)COc1nn(-c2ccc(F)cc2)c(-c2cccc(F)c2)c1Br [III-017] | 100% | – | 100% | 100% | – | 100%
24 | CCN(CC)CC.O=C(O)COc1nn(-c2cccc(F)c2)c(-c2ccccc2)c1I [II-14] | – | – | – | – | – | 100%
25 | O=C(O)COc1nn(-c2cccc(F)c2)c(-c2ccccc2)c1Br [I-127] | 100% | – | 100% | 90% | 90% | 100%
26 | O=C(COc1nn(-c2ccc(F)cc2)c(-c2cccc(F)c2)c1Cl)NCC1CC1 [III-025] | 100% | 100% | – | 90% | – | –
27 | COC(=O)COc1nn(-c2ccc(F)cc2)c(-c2cccc(F)c2)c1[N+](=O)[O-] [I-108] | – | – | 100% | – | – | 90%
28 | CCOC(=O)COc1nn(-c2ccc(Cl)cc2F)c(-c2ccc(F)cc2Cl)c1Br [I-155] | 100% | – | – | – | – | 90%
29 | CCOC(=O)COc1nn(-c2ccccc2OC)c(-c2ccccc2)c1Br [I-092] | 100% | – | 100% | 100% | – | 100%
30 | COC(=O)COc1nn(-c2ccccc2F)c(-c2ccc(F)s2)c1Cl [I-094, Methyl {[4-chloro-1-(2-fluorophenyl)-5-(5-fluoro-2-thienyl)-1H-pyrazol-3-yl]oxy}acetate] | 100% | – | 100% | 100% | – | 100%
31 | CCOC(=O)COc1nn(-c2c(F)cccc2F)c(-c2ccc(F)c(F)c2)c1[N+](=O)[O-] [I-144] | – | – | 100% | – | – | 100%
32 | CCCN(CCC)CCC.O=C(O)COc1nn(-c2cccc(F)c2)c(-c2ccccc2)c1I [II-07] | 90% | – | – | – | – | 90%
33 | CCOC(=O)COc1nn(-c2ccc(Cl)cc2F)c(-c2ccc(F)cc2F)c1Br [I-150] | 100% | 100% | – | – | – | –
